From EP4806899A1, “FUSED RING DERIVATIVE, PREPARATION METHOD THEREFOR AND USE THEREOF IN MEDICINE” (Shanghai Qilu Pharmaceutical Research and Development …, priority 2023, dated 2025)
pIC50: −log10 of the molar value.

Assays:
[1] = molecular target: T1, human CYP11B1 enzyme (Homo sapiens, UniProt P15538); assay: Enzyme inhibition activity assay in G402 cells stably expressing human CYP11B1 (cortisol production from 11-DC, LC/MS); format: cell-based; conditions: 1 µM 11-DC, 16 hours, cortisol detected
T1 construct: the ORF of human CYP11B1 or CYP11B2 were transfected into G402 cells; expressed in transfected cells
T1 sequence (P15538 25-503): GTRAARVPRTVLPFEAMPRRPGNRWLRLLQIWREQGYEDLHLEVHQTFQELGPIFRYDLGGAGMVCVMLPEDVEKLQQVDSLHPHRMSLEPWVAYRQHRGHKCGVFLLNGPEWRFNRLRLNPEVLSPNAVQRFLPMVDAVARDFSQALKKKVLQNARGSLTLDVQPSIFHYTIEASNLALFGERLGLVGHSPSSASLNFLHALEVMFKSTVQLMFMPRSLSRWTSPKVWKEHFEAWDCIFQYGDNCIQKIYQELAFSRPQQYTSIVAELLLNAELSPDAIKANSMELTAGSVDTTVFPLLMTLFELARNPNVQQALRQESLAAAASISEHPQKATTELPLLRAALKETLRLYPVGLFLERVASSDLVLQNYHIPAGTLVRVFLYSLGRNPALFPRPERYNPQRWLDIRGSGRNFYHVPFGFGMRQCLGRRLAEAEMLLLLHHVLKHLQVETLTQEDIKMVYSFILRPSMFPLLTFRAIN
Procedure, shortened: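 G402 cells stably expressing human CYP11B2 or CYP11B1, preincubated 1 h with inhibitor in DMEM/F12 plus 2.5% charcoal-stripped FCS, then 16 h with 1 µM 11-DOC or 1 µM 11-DC. Aldosterone or cortisol quantified by LC/MS; IC50 from four-parameter logistic fit versus uninhibited control.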

[2] = Pharmacokinetic determination in monkeys after gavage administration (P.O.); format: in vivo, Cynomolgus monkeys (Macaca fascicularis); conditions: cynomolgus monkey, po, 1 mg/kg, plasma
Protocol: Cynomolgus monkeys (Macaca fascicularis) were used as test animals to study the pharmacokinetic behavior of the compounds of the present disclosure in plasma following gavage administration (P.O.). Plasma samples were collected at specific time points, compound concentrations in plasma were detected by LC-MS/MS, and pharmacokinetic parameters were calculated to reflect the pharmacokinetics in cynomolgus monkeys.
Cynomolgus monkeys, male, Ankaiyibo (Zhanjiang) Biotechnology Co., Ltd.
After administration to cynomolgus monkeys, venous blood samples of 0.3 mL were collected at 0.25, 0.5, 1, 2, 4, 8, and 24 hours and placed in EDTA-K2 test tubes. Plasma was separated by centrifugation at 4 °C, 4000 g for 5 minutes and stored at -80 °C.
• 1) 50 µL of plasma sample was precipitated by adding 200 µL of acetonitrile, vortex mixed, and centrifuged for 15 minutes. • 2) The processed supernatant was diluted with water and analyzed by LC/MS/MS to determine the concentration of the test compound.
Pharmacokinetic parameters were calculated using WinNonlin 8.3. Cmax represents the maximum plasma concentration, T1/2 represents the terminal elimination half-life, MRTInf represents the mean residence time, and AUC represents the area under the plasma concentration-time curve. Table 6 Pharmacokinetic Parameters of the Compounds of the Present Disclosure in Monkeys

[2H]C([2H])([2H])OC(=O)N[C@@H]1CCOc2c(-c3cc(F)c4c(ccc(=O)n4C)c3)cncc21 [Compound A50]
pIC50 [1]: 5.67 | Cmax ([2]; male): 1.14 µM | MRT inf ([2]; male): 13 h | half-life ([2]; male): 10.5 h | AUC(0-t) ([2]; male, read-out: AUC0-24): 13.5 µM·h

CCC(=O)N[C@@H]1CCOc2c(-c3ccc4c(c3)CCC(=O)N4C)cncc21 [Compound A02-P2]
pIC50 [1]: 5.43 | Cmax ([2]; in vivo): 1.6 µM | MRT inf ([2]; in vivo): 8.77 h | half-life ([2]; in vivo): 7.44 h | AUC(0-t) at 24 h ([2]; in vivo, read-out: AUC0-24): 12.8 µM·h
